In data set [1] the test system is HCC827 (adenocarcinoma). Description: Cell-Titer Glo cytotoxicity assay, HCC827 cells. It counts as cell-based. Conditions: for IC50: Homo sapiens, 48 hours of drug treatment, ≥ 6 drug dilutions (3-fold); for cytotoxicity (cell viability): HCC827, 48 hrs. On the procedure: FIG. 3 provides the results of HCC827 cells incubated for 48 hrs. with or without CPG2 in the presence of APdMG-Glu where cell viability was measured by Cell-Titre Glo, according to the working examples. The viability of the cells incubated with the active version of the drug (O-(3-aminopropyl)-des-morpholino-gefitinib) are shown for comparison.
(§1) Prodrug/Drug IC50 and trans and cis-toxicity assays with secreted enzyme were performed using Cell-Titer Glo (Promega). Cells were analyzed in triplicate wells of a 96-well dish and equivalent volume of Cell-Titer Glo reagent was added to each well. Following a 10-minute incubation at room temperature samples were transferred to White 96-well Optiplate (Perkin Elmer) and luminescence was measured on a SpectraMax M2 plate reader (Molecular Devices). Data were analyzed with SoftMax Pro software.

Data set [2] concerns PC9 (adenocarcinoma). Description: Cell-Titer Glo cytotoxicity assay, PC9 cells. It counts as cell-based. The note with it: for IC50: Homo sapiens, PC-9, 48 hours of drug treatment, ≥ 6 drug dilutions (3-fold). On the procedure: as §1
For data set [3], the target named is T1, CPG2 (Pseudomonas sp., UniProt P06621).
T1 construct: HA (C); His (C); host or cells: E. coli
Description: Amplex Red glutamate release assay with recombinant CPG2. It counts as biochemical. Conditions: incubated with recombinant CPG2, FIG. 2. On the procedure:
FIG. 2 provides the results of incubating APdMG-Glu, an embodiment of a prodrug compound of the present technology, with increasing concentration of recombinant CPG2 where glutamate release was measured in an Amplex Red assay, according to the working examples.
Recombinant CPG2 enzyme was incubated with prodrugs in CPG2 reaction buffer (1M TrisHCL, 2 mM ZnCl2) for 2 hr at 37° C. and the enzyme/prodrug mixture was combined 1:1 with Amplex Red™ Glutamate Oxidase Assay mixture (Thermo cat # A12221). Following 30 min at 37° C. fluorescent emission at 590 nm was measured on a SpectraMax M2 plate reader (Molecular Devices). Data were analyzed with SoftMax Pro software.

In data set [4] the target is T1, CPG2. It counts as biochemical. The note with it: for Vmax: disappearance of substrate and/or appearance of product. The source says: CPG2 proteins were produced and purified by GenScript. Constructs contain c-terminal HA and His epitope tags and were purified by nickel columns.
Where [5] appears, read: substrate of CPG2, RapidFire-MS.

Where two headings read alike, the source gives them in different places.

T1 sequence (P06621 23-415): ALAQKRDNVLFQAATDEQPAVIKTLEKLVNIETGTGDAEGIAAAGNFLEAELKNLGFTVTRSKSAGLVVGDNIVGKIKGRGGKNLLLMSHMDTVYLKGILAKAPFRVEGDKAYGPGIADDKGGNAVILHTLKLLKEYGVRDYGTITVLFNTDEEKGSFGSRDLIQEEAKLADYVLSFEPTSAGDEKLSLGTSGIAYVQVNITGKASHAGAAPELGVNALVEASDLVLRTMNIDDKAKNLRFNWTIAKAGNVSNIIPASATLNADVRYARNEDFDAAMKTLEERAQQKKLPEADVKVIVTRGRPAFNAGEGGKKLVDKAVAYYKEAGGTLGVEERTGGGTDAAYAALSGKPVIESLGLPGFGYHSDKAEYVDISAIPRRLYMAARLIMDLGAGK

The IC50 is the point on the concentration scale where inhibition reaches its midpoint. For the molecule `COc1cc2ncnc(Nc3ccc(F)c(Cl)c3)c2cc1OCCCN` [APdMG, 6-(3-Aminopropoxy)-N-(3-chloro-4-fluorophenyl)-7-methoxyquinazolin-4-amine], the values for the IC50 in data set [1] (HCC827) and in data set [2] were 0.02 µM and 0.21 µM, respectively.
As a reminder, the Km is the substrate concentration at which the rate is half of its maximum. In general, kcat refers to the number of substrate molecules converted per active site and unit of time at saturation. As usually defined, the Vmax is the top rate of the reaction or transport when substrate is in excess. With `COc1cc2ncnc(Nc3ccc(F)c(Cl)c3)c2cc1OCCCNC(=O)OCc1ccc(NC(=O)N[C@@H](CCC(=O)O)C(=O)O)cc1` [APdMG-Glu, ((4-((((3-((4-((3-chloro-4-fluorophenyl)amino)-7-methoxyquinazolin-6-yl)oxy)propyl)carbamoyl)oxy)methyl)phenyl)carbamoyl)-L-glutamic acid], in data set [3], the “cleavage of the glutamate moiety (glutamate release)” value was “confirm cleavage of the glutamate moiety”. For the same molecule, the “cytotoxicity (cell viability)” value in data set [1] (plus recombinant CPG2, FIG. 3) is “cytotoxicity comparable to that of the parent drug gefitinib”; in data set [1] (prodrug alone without CPG2, FIG. 3), “not APdMG-Glu alone”. For the same molecule, the Selective index in data set [1] (HCC827, prodrug vs active drug) was found to be 5.5; in data set [2] (prodrug vs active drug) it was 6. Moreover, the IC50 in data set [1] (HCC827) came out at 0.11 µM; in data set [2], 0.24 µM. The Km in data set [4] (setting [5]) was determined as 2.25 µM. Also, the kcat in data set [4] (setting [5]) turned out to be 0.137 s⁻¹. Further, the Vmax in data set [4] (setting [5]) was determined as 0.10 µM/s.
For `CN(Cc1cnc2nc(N)nc(N)c2n1)c1ccc(C(=O)N[C@@H](CCC(=O)O)C(=O)O)cc1` [methotrexate, reference compound], the Km in data set [4] was found to be 9.45 µM. Also, in data set [4] (setting [5]), the kcat was 10.36 s⁻¹ and the maximum rate (Vmax) amounted to 0.39 µM/s.
